The source of these data is patent publication US20240140953A1, “INHIBITORS OF MENIN-MLL INTERACTION” (BIOMEA FUSION, INC., priority 2018, published 2024).

“Also recorded” adds a separate entry of the source. Where two headings read alike, the source gives them in different places.

In one test the test system is MV-4-11. In words: Long term proliferation assay (Table 3A), MV-4-11. The format is cell-based. Conditions: Homo sapiens, MV4-11.
The subject of a further test is HL-60. The test is described as follows: Proliferation study, CellTiterGlo, 4 days (Example 102), HL-60. The format is cell-based. Conditions: HL-60, 4 days treatment; for HL-60 % max: maximal inhibition; for IC50: Homo sapiens, 96 h, CellTiterGlo. From the text: The objective of the study was to evaluate the ability of representative compounds of the present invention, inhibitors of Menin/MLL interaction to inhibit cell proliferation. The proliferation inhibitory effect was investigated in two human MLL-leukemia cells selected on the bases of MLL fusion protein and listed in Table 102. HL-60 cell line was used as negative control.
ATP is present in all metabolically active cells and is considered as a marker for cell viability and proliferation. The metabolic cell activity was determined using the CellTiter-Glo kit from Promega, an ATP monitoring system based on the production of luminescence by the reaction of ATP with added UltraGlo® recombinant luciferase (Kawano et al., 2016), according to the supplier's experimental recommendations.
The described assay evaluates the ability of 4 representative compounds to inhibit the cell proliferation in the human MLL-leukemia cells plus a negative control cell line.
The assay provides potency values (IC50) for each test compound at a single time point Day 4 (T4).
Seven concentrations of the compounds (2.00E-05-6.67E-06-2.22E-06-7.41E-07-2.47E-07-8.23E-08-2.74E-08M), were assessed in duplicate in an individual test occasion in all the cell lines. MI-503 (Borkin et al., 2015) was used as reference compound and was tested at the same concentrations as the NCEs. 100% of proliferation is represented by the untreated cells (0.2% DMSO). The cell growth was monitored up to 4 days in culture.
MV4-11, MOLM-13 and HL-60 cells (see Table 2) were maintained in RPMI-1640 medium (Invitrogen, Cat. n. 618700, Batch n. 1965930) supplemented with 10% of Heat Inactivated FBS (Invitrogen, Cat n. 10500, Batch n. 08Q8078K) and 1% Pen-Strep (Invitrogen, Cat. N. 15140, Batch n. 1910859) and cultured at 37° C. in a humidified incubator with 5% CO2. All the cell lines grow in suspension and the cell density was maintained in a range of 2×10^5-1×10^6 viable cells/ml. Cells were pelleted at 130 g×5 min and conditioned medium was used to dilute the cell suspension.
Test items were dissolved in glass vials at 10 mM in DMSO with purity ≥99.9% (Sigma, D8418, batch n. SHBH4245V) and stored at −20° C. in 1.5 mL Eppendorf tubes.
Serial dilutions 1 to 3 in DMSO 100% were prepared starting from a 10 mM stock solutions to generate 7 points concentration response curve (CRC).
For each plate to test, one 0.4 μL copy plate and four 0.3 μL copy plates were then stamped into 96-well plates not treated for cell adhesion (Sarstedt—cat.no. 82.1581.001) by acoustic liquid Handling, Echo, at a concentration which was 500 fold the final assay concentration. Stamped plates were stored at −20° C. The final concentrations for the reference compound, MI-503, and the test items were: 2.00E-05, 6.67E-06, 2.22E-06, 7.41E-07, 2.47E-07, 8.23E-08 and 2.74E-08 M.
Cells were plated in 96-well flat bottom microtiter plates at cell density of 15,000 cells/ml for HL-60, 1000 cells/ml for MOLM-13 and 10,000 cell/ml for MV4-11. Cells were treated with 0.2% DMSO (Sigma, D8418, batch n. SHBH4245V) or serial dilutions of compounds (0.027 μM-20 μM) in DMSO (0.2% final concentration). Cells were incubated in a 5% CO2 incubator at 37° C. for 4 days. A CellTiterGlo viability assay (Promega) was employed. Luminescence was read by using VictorV (Perkin Elmer) multilabel plate reader using the standard protocol for luminescence in 96 well plate. The experiment was performed in duplicate.
Data were expressed as % of inhibition compared to the 0.2% DMSO negative control, and was calculated as follows: […]
CRCs were analysed by GraphPad and IC50 values were calculated by non-linear regression using 4 parameter-logistic equation. IC50 (μM) values were reported in the final data table. The curve fittings were performed leaving free all the parameters. Any constrain were reported in the results table.

[1] abbreviates: MV-4-11, Day 4, read-out: MV-4-11 Day 4 IC50.
[2] abbreviates: read-out: HL-60 pIC50 (converted).

Turning to `Cn1nc(-c2cccnc2)cc1CC(=O)Nc1ccc(-c2cc3c(N4CCOCC4)ncnc3[nH]2)cc1` [Compound 11, 2-[1-methyl-3-(pyridin-3-yl)-1H-pyrazol-5-yl]-N-{4-[4-(morpholin-4-yl)-7H-pyrrolo[2,3-d]pyrimidin-6-yl]phenyl}acetamide], the IC50 in the test on MV-4-11 (setting [1]) was 280 nM; in the test with HL-60 (read-out: HL-60 IC50), 510 nM; in the test with HL-60 (setting [2]), 513 nM. In the test on HL-60, this molecule yielded an HL-60 % max of 102%.
Turning to `O=C(Cc1cc(-c2cccnc2)n[nH]1)Nc1ccc(-c2nc3c(N4CCOCC4)ncnc3[nH]2)cc1` [Compound 12, N-{4-[6-(morpholin-4-yl)-9H-purin-8-yl]phenyl}-2-[3-(pyridin-3-yl)-1H-pyrazol-5-yl]acetamide], the IC50 is 430 nM in the test with MV-4-11 (setting [1]), more than 20000 nM with HL-60 (read-out: HL-60 IC50) and more than 20000 nM with HL-60 (setting [2]). For the same molecule, in the test on HL-60 (up to 20 μM), the “inhibition of cell viability (in words)” value was “not active up to the highest concentration tested; also recorded: completely inactive up to the highest concentration tested”.
For the molecule `O=C(Nc1ccc(-c2cc3c(N4CCOCC4)ncnc3[nH]2)cc1)Nc1cc(-c2cccnc2)n[nH]1` [Compound 9, 1-{4-[4-(morpholin-4-yl)-7H-pyrrolo[2,3-d]pyrimidin-6-yl]phenyl}-3-[3-(pyridin-3-yl)-1H-pyrazol-5-yl]urea], the IC50 in the test with MV-4-11 (setting [1]) is 490 nM; in the test on MV-4-11 (MV-4-11, Day 11, read-out: MV-4-11 Day 11 IC50) it was 257 nM; with HL-60 (read-out: HL-60 IC50) it was 320 nM; in the test with HL-60 (setting [2]), 316 nM. This molecule also yielded an HL-60 % max with HL-60 of 69%.
